Measured values as given in publication PMC4539082 (Drug Design, Development and Therapy, 2015).
Blank lines part the entries; values can stand above or below the compound they belong to.

How the values were obtained:
[1] = Half-life in rat; type: in vivo
[2] = Half-life in mice; conditions: mouse, in vivo
[3] = Half-life in dog; type: in vivo
[4] = patients; cited from earlier work
[5] = test system: PDX of melanoma; conditions: cited from earlier work
[6] = test system: p3TP Lux mink lung cells; test: TGF-β-dependent luciferase assay in mink lung cells; type: cell-based; conditions: read-out: p3TP lux, IC50; Mean values ± SEM for a minimum of three determinations (n); data on file
[7] = test system: NIH3T3; test: Growth inhibition in mouse fibroblasts; type: cell-based; conditions: read-out: NIH3T3, IC50; Mean values ± SEM for a minimum of three determinations (n); data on file
[8] = target: p38MAPK (Homo sapiens, UniProt Q16539); test: p38MAPK inhibition, single-point determination; type: biochemical; conditions: read-out: p38MAPK, IC50, data on file
[9] = test system: cell lines that had no T790M mutation; conditions: cell lines without T790M mutation; cited from earlier work
[10] = target: T1, TGF-βR-I kinase domain (Homo sapiens, UniProt P36897, T204D); test: Ki of Eli Lilly TGF-β SMIs; type: biochemical; conditions: data on file, Eli Lilly and Company
T1 sequence (P36897 148-503 T204D limits assumed): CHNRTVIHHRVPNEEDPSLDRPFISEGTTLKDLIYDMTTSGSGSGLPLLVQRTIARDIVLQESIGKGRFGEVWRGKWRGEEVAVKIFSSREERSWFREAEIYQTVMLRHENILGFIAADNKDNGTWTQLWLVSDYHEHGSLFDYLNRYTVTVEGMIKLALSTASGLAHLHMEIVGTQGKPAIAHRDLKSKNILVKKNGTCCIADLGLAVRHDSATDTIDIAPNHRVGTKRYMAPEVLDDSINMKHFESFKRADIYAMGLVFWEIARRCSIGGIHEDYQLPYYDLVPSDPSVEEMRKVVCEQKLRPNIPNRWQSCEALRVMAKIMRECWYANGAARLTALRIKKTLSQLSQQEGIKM

[11] = test system: NSCLC cell lines; conditions: cited from earlier work
[12] = test system: MDAPCa2b and PC-3; conditions: cited from earlier work
[13] = test system: lung fibrosis; conditions: administration before, during, and after radiation treatment; cited from earlier work
[14] = test system: pSMAD2 in glioblastoma cell lines; conditions: lomustine by itself; cited from earlier work
[15] = one patient with malignant melanoma; doses up to 15 mg/kg; cited from earlier work
[16] = 13 patients, 3 mg/kg every 21 days; cited from earlier work

p38MAPK, sequence (Q16539 whole entry): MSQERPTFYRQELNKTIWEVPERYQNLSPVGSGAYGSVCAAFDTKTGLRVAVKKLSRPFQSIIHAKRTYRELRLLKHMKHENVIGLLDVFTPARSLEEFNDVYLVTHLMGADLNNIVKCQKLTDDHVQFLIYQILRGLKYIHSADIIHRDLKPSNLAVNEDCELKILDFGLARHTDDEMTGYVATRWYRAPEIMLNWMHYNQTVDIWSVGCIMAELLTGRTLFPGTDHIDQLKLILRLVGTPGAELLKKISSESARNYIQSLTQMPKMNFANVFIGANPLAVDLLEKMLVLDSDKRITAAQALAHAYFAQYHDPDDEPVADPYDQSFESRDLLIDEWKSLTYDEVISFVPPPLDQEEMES

- IC50 [6]: 47 ± 16 nM
- IC50 [8]: 740 nM
Compound: c1ccc(-c2[nH]ncc2-c2ccnc3ccccc23)nc1 [LY364947]
- IC50 [7]: 89 ± 10 nM
- EGFR resistance [9]: able to overcome the EGFR resistance

- Ki [10]: 37 nM
- IC50 [6]: 96 ± 16 nM
- IC50 [8]: > 20000 nM
Compound: Cc1cccc(-c2nn3c(c2-c2ccc(F)cc2)CCC3)n1 [LY580276]
- IC50 [7]: 339 ± 349 nM

- IC50 [6]: 180 ± 93 nM
- Half-life mean ([1]; Rat, data on file): 108 min
- Half-life mean ([3]; Dog, data on file): 60 to 120 min
Compound: c1ccc(-c2nn3c(c2-c2ccnc4cc(OCCN5CCOCC5)ccc24)CCC3)nc1 [LY2109761]
- IC50 [7]: 210 ± 170 nM
- metastatic spread [11]: reduced metastatic spread
- antitumor activity, bone metastasis [12]: inhibiting bone metastasis
- lung fibrosis [13]: inhibited lung fibrosis

Further lines, the compound ahead of its results:

Compound: Cc1cccc(-c2nn3c(c2-c2ccnc4ccc(C(N)=O)cc24)CCC3)n1 [Galunisertib (LY2157299)]
- half-life ([1]; rat, in vivo): 31.8 min
- half-life [2]: 18 min
- half-life ([3]; dog, in vivo): 136 min
- drug-related Grade 3/4 toxicities [4]: < 5%
- pSMAD2 ([5]; PDX of melanoma): inhibited
- growth inhibitory effect ([5]; standard tumor colony assay, melanoma PDX): no growth inhibitory effect

Compound: O=NN(CCCl)C(=O)NC1CCCCC1 [lomustine]
- pSMAD2 [14]: reduced pSMAD2

Compound: fresolimumab: pan-TGF-β ligand monoclonal antibody
- duration of partial response [15]: 44.4 weeks
- radiographic responses [16]: None of the patients had radiographic responses
